Where a name gives a salt, the structure may show the parent alone. Some results are limits rather than exact numbers.

Sequence of BoNT/A LC1-429 (P0DPI1 1-429, added parts left off): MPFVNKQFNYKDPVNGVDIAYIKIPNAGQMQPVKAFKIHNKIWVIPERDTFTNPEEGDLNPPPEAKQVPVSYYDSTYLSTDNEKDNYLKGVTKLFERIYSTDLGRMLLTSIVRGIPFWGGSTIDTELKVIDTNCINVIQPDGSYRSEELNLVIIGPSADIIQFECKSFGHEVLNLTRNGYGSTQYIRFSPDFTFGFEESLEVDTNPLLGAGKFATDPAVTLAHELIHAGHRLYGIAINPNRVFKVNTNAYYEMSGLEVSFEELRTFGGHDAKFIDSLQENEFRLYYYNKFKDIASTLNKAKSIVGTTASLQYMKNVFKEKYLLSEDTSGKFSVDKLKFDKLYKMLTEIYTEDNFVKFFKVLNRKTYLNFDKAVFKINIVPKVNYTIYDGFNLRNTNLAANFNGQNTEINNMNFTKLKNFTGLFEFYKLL

This test has as its target BoNT/A LC1-429 (Clostridium botulinum, UniProt P0DPI1). The experiment in a line: biochemical. The note with it: BoNT/A Ki (nM).
One may read the Ki as a measure of affinity in units of concentration, obtained from inhibition or displacement. `CCO[C@H](CC(=O)NO)[C@H](Cc1ccc(Cl)cc1)c1ccc(CN2CCN(C(=O)OC(C)(C)C)CC2)cc1` [Example 3-17, tert-butyl 4-(4-((2R,3R)-1-(4-chlorophenyl)-3-ethoxy-5-(hydroxyamino)-5-oxopentan-2-yl)benzyl)piperazine-1-carboxylate] yielded an inhibitory constant (Ki) of 8.5 nM. This lies in the single-digit nanomolar range.

Turning to `CCO[C@H](CC(=O)NO)[C@H](Cc1ccc(Cl)cc1)c1ccc(CN2CCOCC2)cc1` [Example 3-16, (3R,4R)-5-(4-chlorophenyl)-3-ethoxy-N-hydroxy-4-(4-(morpholinomethyl)phenyl) pentanamide], the inhibitory constant (Ki) was 10.1 ± 2.4 nM.

Turning to `CCO[C@H](CC(=O)NO)[C@H](Cc1ccc(Cl)cc1)c1ccc(N(C)CCO)cc1` [Example 3-21, (3R,4R)-5-(4-chlorophenyl)-3-ethoxy-N-hydroxy-4-(4-((2-hydroxyethyl)(methyl)amino)phenyl)pentanamide], the inhibition constant (Ki) turned out to be 8.5 nM.

In the case of `CO[C@H](CC(=O)NO)[C@H](Cc1ccc(F)cc1C)c1ccc(Br)cc1` [Example 2-1, (3R,4R)-4-(4-bromophenyl)-5-(4-fluoro-2-methylphenyl)-N-hydroxy-3-methoxypentanamide], the Ki amounted to 235 nM.

The molecule `CCO[C@H](CC(=O)NO)[C@H](Cc1ccc(Cl)cc1C)c1ccc(F)cc1F` [Example 6-10, (3R,4R)-5-(4-chloro-2-methylphenyl)-4-(2,4-difluorophenyl)-3-ethoxy-N-hydroxypentanamide] returned a Ki of 10 nM. This Ki lies about 24-fold lower than the previous one.

With `O=C(O)CCO[C@H](CC(=O)NO)[C@H](Cc1ccc(Cl)cc1)c1ccc(F)cc1F` [Example 6-27, 3-(((3R,4R)-5-(4-chlorophenyl)-4-(2,4-difluorophenyl)-1-(hydroxyamino)-1-oxopentan-3-yl)oxy)propanoic acid], the Ki is 361 nM.

The molecule `CO[C@H](CC(=O)NO)[C@H](Cc1ccc(Cl)cc1)c1ccc(CO)cc1` [Example 3-11, (3R,4R)-5-(4-chlorophenyl)-N-hydroxy-4-(4-(hydroxymethyl)phenyl)-3-methoxypentanamide] registered an inhibitory constant (Ki) of 9.7 nM.

As for `CCCCO[C@H](CC(=O)NO)[C@H](Cc1ccc(Cl)cc1)c1ccc(F)cc1F` [Example 6-15, (3R,4R)-3-butoxy-5-(4-chlorophenyl)-4-(2,4-difluorophenyl)-N-hydroxypentanamide], the inhibition constant Ki turned out to be 48.5 nM. Compared with the last molecule, the Ki is about 5-fold higher.

With `CO[C@H](CC(=O)NO)[C@H](Cc1ccc(Cl)cc1)c1ccc(Cl)c(CN2CCCCC2)c1` [Example 5-2, (3R,4R)-4-(4-chloro-3-(piperidin-1-ylmethyl)phenyl)-5-(4-chlorophenyl)-N-hydroxy-3-methoxypentanamide], the inhibitory constant (Ki) turned out to be 3.7 nM. This Ki is about 13-fold lower than that of the molecule before.

`CCO[C@H](CC(=O)NO)[C@H](Cc1ccc(Cl)cc1)c1ccc(-c2cncnc2)cc1` [Example 3-26, (3R,4R)-5-(4-chlorophenyl)-3-ethoxy-N-hydroxy-4-(4-(pyrimidin-5-yl)phenyl)pentanamide] gave a Ki of 3.7 nM. This counts as single-digit nanomolar.

The molecule `CO[C@H](CC(=O)NO)[C@H](Cc1ccc(Cl)cc1C)c1ccc(F)cc1F` [Example 6-22, (3R,4R)-5-(4-chloro-2-methylphenyl)-4-(2,4-difluorophenyl)-N-hydroxy-3-methoxypentanamide potassium salt] came in with a Ki of 6.7 nM.

As for `CO[C@@H](CC(=O)NO)[C@H](Cc1ccc(F)c(C)c1)c1ccc(Br)cc1` [Example 2-4, (3S,4R)-4-(4-bromophenyl)-5-(4-fluoro-3-methylphenyl)-N-hydroxy-3-methoxypentanamide], affinity was put at a Ki of 145 nM. This Ki lies about 22-fold higher than the previous one.

Molecule `CCO[C@H](CC(=O)NO)[C@H](Cc1ccc(Cl)cc1)c1ccc(CN2CCNCC2)cc1` [Example 3-18, (3R,4R)-5-(4-chlorophenyl)-3-ethoxy-N-hydroxy-4-(4-(piperazin-1-ylmethyl)phenyl)pentanamide] yielded a Ki of 13.5 ± 2.8 nM.

The molecule `CO[C@H](CC(=O)NO)[C@H](Cc1ccc(Cl)cc1)c1ccc(Cl)c(Br)c1` [Example 5-1, (3R,4R)-4-(3-bromo-4-chlorophenyl)-5-(4-chlorophenyl)-N-hydroxy-3-methoxypentanamide] had an inhibitory constant (Ki) of 5.2 nM.

Molecule `CCO[C@H](CC(=O)NO)[C@H](Cc1ccc(Cl)cc1)c1ccc(Cl)cc1` [Example 6-1, (3R,4R)-4,5-bis(4-chlorophenyl)-3-ethoxy-N-hydroxypentanamide] had an inhibitory constant (Ki) of 4.9 nM. The Ki values of the last two molecules are within 1.5-fold of each other.

As for `CCO[C@H](CC(=O)NO)[C@H](Cc1ccc(Cl)cc1Cl)c1ccc(Br)cc1` [Example 6-6, (3R,4R)-4-(4-bromophenyl)-5-(2,4-dichlorophenyl)-3-ethoxy-N-hydroxypentanamide], the Ki turned out to be 4.9 nM.

Molecule `CCO[C@H](CC(=O)NO)[C@H](Cc1ccc(Cl)cc1)c1ccc(CN2CCCCC2)cc1` [Example 3-19, (3R,4R)-5-(4-chlorophenyl)-3-ethoxy-N-hydroxy-4-(4-(piperidin-1-ylmethyl)phenyl)pentanamide] had a Ki of 19.5 nM. Compared with the last molecule, the Ki is about 4-fold higher.

As to `CCO[C@H](CC(=O)NO)[C@H](Cc1ccc(Cl)cc1)c1ccc(COCOC)cc1` [Example 3-14], affinity was put at a Ki of 21.2 nM.

`CCO[C@H](CC(=O)NO)[C@H](Cc1ccc(Cl)cc1)c1ccc(-n2ccnc2)cc1` [Example 3-29, (3R,4R)-4-(4-(1H-imidazol-1-yl)phenyl)-5-(4-chlorophenyl)-3-ethoxy-N-hydroxypentanamide] gave an inhibition constant Ki of 3.6 nM.

`CO[C@H](CC(=O)NO)[C@H](Cc1ccc(Cl)cc1)c1ccc(Cl)cc1` [Example 3-4, (3R,4R)-4,5-bis(4-chlorophenyl)-N-hydroxy-3-methoxypentanamide] showed a Ki of 4.8 nM.

The molecule `CCCCOCc1ccc([C@@H](Cc2ccc(Cl)cc2)[C@@H](CC(=O)NO)OC)cc1` [Example 3-13] returned a Ki of 24.9 nM.

`CCO[C@H](CC(=O)NO)[C@H](Cc1ccc(Cl)cc1)c1ccc(C2(C)CO2)cc1` (stereo partly drawn) [Example 3-12, (3R,4R)-5-(4-chlorophenyl)-3-ethoxy-N-hydroxy-4-(4-(2-methyloxiran-2-yl)phenyl)pentanamide] had an inhibition constant (Ki) of 9.6 nM. This Ki lies about 2.6-fold lower than the previous one.

The molecule `CO[C@H](CC(=O)NO)[C@H](Cc1ccc(Cl)cc1)c1ccc(Cl)c(C(=O)N2CCCCC2)c1` [Example 5-3, (3R,4R)-4-(4-chloro-3-(piperidine-1-carbonyl)phenyl)-5-(4-chlorophenyl)-N-hydroxy-3-methoxypentanamide] gave a Ki of 13.1 nM.

`CO[C@H](CC(=O)NO)[C@H](Cc1ccc(Cl)cc1C)c1ccc(F)cc1` [Example 6-4, (3R,4R)-5-(4-chloro-2-methylphenyl)-4-(4-fluorophenyl)-N-hydroxy-3-methoxypentanamide] came in with an inhibitory constant (Ki) of 1.48 nM.

As to `CCO[C@H](CC(=O)NO)[C@H](Cc1ccc(Cl)cc1)c1ccc(C(=O)N(C)CCO)cc1` [Example 4-4, 4-((2R,3R)-1-(4-chlorophenyl)-3-ethoxy-5-(hydroxyamino)-5-oxopentan-2-yl)-N-(2-hydroxyethyl)-N-methylbenzamide], the Ki worked out at 9.8 ± 3.7 nM.

As for `CO[C@H](CC(=O)NO)[C@H](Cc1ccc(F)c(C)c1)c1ccc(Br)cc1` [Example 2-2, (3R,4R)-4-(4-bromophenyl)-5-(4-fluoro-3-methylphenyl)-N-hydroxy-3-methoxypentanamide], affinity was put at a Ki of 3.4 nM.

The molecule `CCO[C@H](CC(=O)NO)[C@H](Cc1ccc(Cl)cc1)c1ccc(C(=O)N2CCCCC2)cc1` [Example 4-3, (3R,4R)-5-(4-chlorophenyl)-3-ethoxy-N-hydroxy-4-(4-(piperidine-1-carbonyl)phenyl)pentanamide] yielded a Ki of 4.3 ± 2 nM.

On to `CCO[C@@H](CC(=O)NO)[C@H](Cc1ccc(Cl)cc1)c1ccc(Br)cc1` [Example 3-7, (3S,4R)-4-(4-bromophenyl)-5-(4-chlorophenyl)-3-ethoxy-N-hydroxypentanamide], for which affinity was put at a Ki of 73 nM.

`O=C(C[C@@H](OCCO)[C@H](Cc1ccc(Cl)cc1)c1ccc(F)cc1F)NO` [Example 6-18, (3R,4R)-5-(4-chlorophenyl)-4-(2,4-difluorophenyl)-N-hydroxy-3-(2-hydroxyethoxy)pentanamide]: the Ki is 8.75 nM. Compared with the last molecule, the Ki is about 8.3-fold lower.

As to `CC(C)(C)OC(=O)NCCCO[C@H](CC(=O)NO)[C@H](Cc1ccc(Cl)cc1)c1ccc(F)cc1F` [Example 6-25, tert-butyl (3-(((3R,4R)-5-(4-chlorophenyl)-4-(2,4-difluorophenyl)-1-(hydroxyamino)-1-oxopentan-3-yl)oxy)propyl)carbamate], the inhibition constant Ki is over 150000 nM.

As to `CCCO[C@H](CC(=O)NO)[C@H](Cc1ccc(Cl)cc1)c1ccc(F)cc1F` [Example 6-16, (3R,4R)-5-(4-chlorophenyl)-4-(2,4-difluorophenyl)-N-hydroxy-3-propoxypentanamide], the inhibition constant Ki came out at 38.5 nM.

In turn, `CCO[C@H](CC(=O)NO)[C@H](Cc1ccc(Cl)cc1)c1ccc(-c2ccc[nH]2)cc1` [Example 3-25, (3R,4R)-4-(4-(1H-pyrrol-2-yl)phenyl)-5-(4-chlorophenyl)-3-ethoxy-N-hydroxypentanamide] displayed a Ki of 8 nM.

As for `CCO[C@H](CC(=O)NO)[C@H](Cc1ccc(Cl)cc1)c1ccc(C(=O)N2CCNCC2)cc1` [Example 4-9, (3R,4R)-5-(4-chlorophenyl)-3-ethoxy-N-hydroxy-4-(4-(piperazine-1-carbonyl)phenyl)pentanamide], the affinity, expressed as Ki, was 9.2 ± 6.1 nM.

Turning to `CCCN(CCC)C(=O)c1ccc([C@@H](Cc2ccc(Cl)cc2)[C@@H](CC(=O)NO)OCC)cc1` [Example 4-2, 4-((2R,3R)-1-(4-chlorophenyl)-3-ethoxy-5-(hydroxyamino)-5-oxopentan-2-yl)-N,N-dipropylbenzamide], the inhibition constant (Ki) came to 3.9 nM.

`O=C(C[C@@H](OCC1CC1)[C@H](Cc1ccc(Cl)cc1)c1ccc(F)cc1F)NO` [Example 6-17, (3R,4R)-5-(4-chlorophenyl)-3-(cyclopropylmethoxy)-4-(2,4-difluorophenyl)-N-hydroxypentanamide] displayed a Ki of 52.4 nM.

Molecule `CCO[C@H](CC(=O)NO)[C@H](Cc1ccc(Cl)cc1)c1ccc(-c2cccn2C(=O)OC(C)(C)C)cc1` [Example 3-24, tert-butyl 2-(4-((2R,3R)-1-(4-chlorophenyl)-3-ethoxy-5-(hydroxyamino)-5-oxopentan-2-yl)phenyl)-1H-pyrrole-1-carboxylate] had a Ki of 8.8 nM.

For `CCO[C@H](CC(=O)NO)[C@H](Cc1ccc(Cl)cc1)c1ccc(F)cc1F` [Example 6-21, (3R,4R)-5-(4-chlorophenyl)-4-(2,4-difluorophenyl)-3-ethoxy-N-hydroxypentanamide potassium salt], affinity was put at a Ki of 12 nM.

The values above are taken from patent publication US9505710B2 (priority 2015, dated 2016).
